# Values of other authors in patent US9333174B2, “Use of simple amino acids to form porous particles” (Civitas Therapeutics, Inc., priority 1999, dated 2016).
# Details: hydrophobicity scale on which glycine has the value 0.5; value of the amino acid itself
row,hydrophobicity,SMILES
1,0.943,CC[C@H](C)[C@H](N)C(=O)O [Isoleucine]
2,0.501,N[C@@H](Cc1ccccc1)C(=O)O [Phenylalanine]
3,0.5,NCC(=O)O [glycine]

row,SMILES,hydrophobicity
1,N[C@@H](CCC(=O)O)C(=O)O [Glutamate],0.043
